Results reported in US20230337677A1, “ARYL AND PYRIDYL AMIDE PESTICIDES AND COMPOSITIONS THEREOF” (University of Florida Research Foundation, Incorporated, priority 2019, published 2023).
Where two headings read alike, the source gives them in different places.

Columns and labels:
[1] = test system: Aedes aegypti strain Orlando (sensitive); assay: Topical toxicity (24 hour mortality), Ae. aegypti Orlando; assay type: in vivo; conditions: topical application, 24 h mortality, female adults, susceptible Orlando strain
Method in brief: (§1)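 Females aged 3–6 days received 200 nL of compound in ethanol topically on the thorax, 10 per concentration per replicate, and were kept at 28° C with sugar water.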

[2] = test system: Anopheles gambiae Akron kdr (Akdr) strain, resistant to pyrethroids; assay: Topical toxicity (24 hour mortality), An. gambiae Akdr; assay type: in vivo; conditions: for An. gambiae AKDR LD50: topical application, 24 h mortality, female adults, pyrethroid-resistant Akdr strain; for An. gambiae RR (resistance ratio): 24 h LD50 resistant strain (AKDR)/24 h LD50 susceptible strain (G3)
Description: (§2) The Aedes aegypti strains Orlando (sensitive) as well as the Puerto Rico (PR, resistant to permethrin) were used. The Anopheles gambiae (G3 sensitive strain, as well as Akron kdr (Akdr) strain, resistant to pyrethroids were also assessed. The larvae were provided by the USDA, Gainesville Fl, and raised in a pan with tap water maintained at 28° C. Larvae were fed a ground liver and yeast mixture, and pupae were placed in emergence cages. Adults were held at 28° C. and provided with cotton balls soaked in 10% sugar water for rearing and for all bioassays.
(§3) Female adults from 3 to 6 days were used for the experiments. The drug was dissolved in ethanol and then applied with a micro-applicator on the thorax, between the legs: 200 nL of drug per female mosquito, with different concentrations of the drug; 10 mosquitos were treated together per concentration per replicate, and put together in a small container with free access to sweet water. Mortality, i.e. no visible movement, was assessed 24 hours after treatment. Every compound was assessed on at least 3 different cohorts of mosquitoes, and the LD50 values and slopes were determined with Probit analysis, corrected with Abbott's formula.

[3] = test system: Aedes aegypti and Anopheles gambiae female adults; assay: Analysis of topical toxicity (statements in words, species not given); assay type: in vivo; conditions: structure-activity analysis of Table 4
Description: as §2
as §3, with “formula. […]” for “formula.”

[4] = test system: Aedes aegypti mosquitoes, insecticide-susceptible Orlando strain; assay type: in vivo; conditions: for 1 h Repellency EC50, μg/cm^2: (OR); for 1 h % Repellency, 100 μg/cm^2: screened at 100 μg/cm^2, strain not given; for 1h % repellency: Screened at μg/cm^2
Method in brief: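 Sixteen female mosquitoes per glass tube facing netting-shielded filter paper treated with acetone solutions (30-0.01 μg/ml; screen at 100 μg/cm^2), no contact. Proportion on treated side scored up to 60 min, then flight-out checked 30 min; mortality after 24 hr constant exposure.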

[5] = test system: Aedes aegypti mosquitoes, pyrethroid-resistant Puerto Rico strain; assay: Vapor repellency glass tube assay (1 h), resistant strain; assay type: in vivo; conditions: with resistance ratio (PR)
[6] = test system: Aedes aegypti mosquitoes, insecticide-susceptible Orlando strain; conditions: for 24h % mortality: Screened at μg/cm^2
[7] = test system: Aedes aegypti mosquitoes, insecticide-susceptible Orlando strain; assay: whole plant or invertebrate; conditions: 24 h, read-out: 24 h % Mortality, 100 μg/cm^2
[8] = test system: Aedes aegypti mosquitoes, pyrethroid-resistant Puerto Rico strain; assay: Vapor toxicity (24 h lethality under constant exposure in glass tubes), resistant strain; conditions: LC50, with resistance ratio (PR)
[9] = test system: Anopheles gambiae G3 sensitive strain; assay: Topical toxicity (24 hour mortality), An. gambiae G3; assay type: in vivo; conditions: topical application, 24 h mortality, female adults, susceptible strain G3
Method in brief: as §1

[10] = Table 3B; Hammett substitution constant based on the ionization of benzoic acids; cited from earlier work
[11] = test system: Aedes aegypti strain Puerto Rico (PR, resistant to permethrin); assay: Topical toxicity (24 hour mortality), Ae. aegypti Puerto Rico; assay type: in vivo; conditions: for Ae. aegypti RR (resistance ratio): 24 h LD50 resistant strain (PR)/24 h LD50 susceptible strain (OR); for Ae. aegypti PR LD50: topical application, 24 h mortality, female adults, permethrin-resistant Puerto Rico strain
Description: as §2, §3

[12] = Mammalian toxicity, oral gavage; assay type: in vivo; conditions: ICR, in vivo; Table 3A; oral gavage; preliminary mouse screening
Description: Mice ([…] strain ICR, body weight between 20 and 26 g, 35 days old+/−4 days), were force fed with compounds solubilized in olive oil to a volume of 10 μL per gram of mouse via 1 mL disposable syringes attached to 22 gauge metal canulas directly in the stomach following the Institutional Animal Care and Use Committee (IACUC) standard procedure. One hour after gavage, mice were returned to food and water access ad libitum. Dose tested ranged from 60 up to 600 mg/kg of mice, following the method recommended by the US EPA to reduce the number of mice used to determine the LD50 doses. Mice were monitored after drug administration during the first hour, and then every 4 hours up to 24 hours. The surviving mice were humanely sacrificed. Any mice displaying a high state of pain/distress would also be considered as not surviving the treatment and were sacrificed before the end of the investigation. The […] was determined using the AOT425StatPgm software; the study was registered and approved by IACUC under number 201810416.

CCCCCC(=O)Nc1cc(Cl)nc(C(F)(F)F)c1 [GMR067]
Ae. aegypti OR LD50 [1]: 3506 ng/mg
An. gambiae AKDR LD50 [2]: 3506 ng/mg
topical toxicity, statement in words (Example 10) [3]: reduced activity

O=C(Nc1cc(F)c(F)c(F)c1)C(F)(F)C(F)(F)C(F)(F)F [MTFI-5-3A, 2,2,3,3,4,4,4-heptafluoro-N-(3,4,5-trifluorophenyl)butanamide]
1 h Repellency EC50, μg/cm^2 [4]: 2.9 μg/cm^2
repellency EC50, compound alone ([4]; alone, FIG. 3 / FIG. 4): 2.9 μg/cm^2
1 h % Repellency, 100 μg/cm^2 [4]: 68%
1 h Repellency EC50, μg/cm^2 (RR) [5]: 4.5 μg/cm^2
24 h LC50, μg/cm^2 ([6]; 24 h, LC50 (OR)): 13 μg/cm^2
mortality at 100 µg/cm2 [7]: 100%
24 h LC50, μg/cm^2 (RR) [8]: 11 μg/cm^2

O=C(Nc1cc(Cl)nc(C(F)(F)F)c1)C(F)(C(F)(F)F)C(F)(F)F [GMR092, N-(2-chloro-6-(trifluoromethyl)pyridin-4-yl)-2,3,3,3-tetrafluoro-2-(trifluoromethyl)propanamide]
Ae. aegypti OR LD50 [1]: 8.8 ng/mg
An. gambiae G3 LD50 [9]: 9.60 ng/mg
An. gambiae RR (resistance ratio) [2]: 0.3
An. gambiae AKDR LD50 [2]: 3.30 ng/mg
topical toxicity, statement in words (Example 10) [3]: retained high mortality

C/C=C\C[C@H]1C(=O)CC[C@@H]1CC(=O)Nc1cc(F)c(F)c(F)c1 [GMR098]
1 h % Repellency, 100 μg/cm^2 [4]: 18%
Ae. aegypti OR LD50 [1]: >6000 ng/mg
An. gambiae G3 LD50 [9]: >1000 ng/mg
An. gambiae AKDR LD50 [2]: >1000 ng/mg
topical toxicity, statement in words (Example 10) [3]: reduced toxicity
24 h % Mortality, 100 μg/cm^2 ([6]; in vivo): 0%

O=C(CCl)Nc1cccc(F)c1 [compound 3]
1h % repellency ([4]; Table 3B): 6%
σmeta [10]: 0.337

O=C(Nc1cc(Cl)nc(Cl)c1)C(F)(F)C(F)(F)C(F)(F)F [GMR031]
1 h % Repellency, 100 μg/cm^2 [4]: 34%
Ae. aegypti OR LD50 [1]: 34 ng/mg
Ae. aegypti RR (resistance ratio) [11]: 0.9
Ae. aegypti PR LD50 [11]: 31 ng/mg
An. gambiae G3 LD50 [9]: 8.0 ng/mg
An. gambiae RR (resistance ratio) [2]: 0.8
An. gambiae AKDR LD50 [2]: 6.7 ng/mg
24 h LC50, μg/cm^2 ([6]; 24 h, LC50 (OR)): 25 μg/cm^2
mortality at 100 µg/cm2 [7]: 98%
24 h LC50, μg/cm^2 (RR) [8]: 22 μg/cm^2

O=C(Nc1cc(C(F)(F)F)cc(C(F)(F)F)c1)C(F)F [MTFI-4-2B]
1 h Repellency EC50, μg/cm^2 [4]: 15 μg/cm^2
1 h % Repellency, 100 μg/cm^2 [4]: 100%
1 h Repellency EC50, μg/cm^2 (RR) [5]: 24 μg/cm^2
mortality at 100 µg/cm2 [7]: 88%

O=C(Nc1cc(Cl)nc(Cl)c1)C(F)(C(F)(F)F)C(F)(F)F [GMR053]
Ae. aegypti OR LD50 [1]: 17 ng/mg
Ae. aegypti RR (resistance ratio) [11]: 0.4
Ae. aegypti PR LD50 [11]: 7.10 ng/mg
An. gambiae G3 LD50 [9]: 5.8 ng/mg
An. gambiae RR (resistance ratio) [2]: 0.5
An. gambiae AKDR LD50 [2]: 2.7 ng/mg
topical toxicity, statement in words (Example 10) [3]: retained high mortality

O=C(Nc1c(Cl)cccc1Cl)C(F)(F)C(F)(F)F [compound 53]
1h EC50 (μg/cm^2) ([4]; Table 3A): 8.90 μg/cm^2
LD50 at 24 h [12]: > 2000 mg/kg
24 h LC50, μg/cm^2 ([6]; Table 3A): 7.60 μg/cm^2
24h % mortality ([6]; Table 3A): 100%

CCN(CC)C(=O)c1cccc(C)c1 [DEET, N,N-diethyl-m-toluamide, reference compound]
1 h Repellency EC50, μg/cm^2 [4]: 35 μg/cm^2
response in glass tube assay (FIG. 1) ([4]; representative response, in words): Mosquitoes moved away from the DEET treated side
1 h Repellency EC50, μg/cm^2 (RR) [5]: 79 μg/cm^2

O=C(CCl)Nc1cccc(O)c1 [compound 2]
1h % repellency ([4]; Table 3B): 36%
σmeta [10]: 0.12

CC(F)(F)C1(C(=O)Nc2cc(Cl)nc(Cl)c2)CC1 [GMR076]
Ae. aegypti OR LD50 [1]: 719 ng/mg
An. gambiae AKDR LD50 [2]: >100 ng/mg
topical toxicity, statement in words (Example 10) [3]: reduced toxicity

O=C(Nc1cc(Cl)nc(Cl)c1)c1c(F)c(F)c(F)c(F)c1F [GMR089]
Ae. aegypti OR LD50 [1]: >6000 ng/mg
An. gambiae G3 LD50 [9]: >100 ng/mg
An. gambiae AKDR LD50 [2]: >100 ng/mg
topical toxicity, statement in words (Example 10) [3]: reduction in toxicity

O=C(Nc1cc(F)c(F)c(F)c1)C(F)(F)C(F)(F)C(F)(F)F [compound 52]
1h EC50 (μg/cm^2) ([4]; Table 3A): 2.92 μg/cm^2
1h % repellency ([4]; Table 3A): 68%
LD50 at 24 h [12]: > 2000 mg/kg
24 h LC50, μg/cm^2 ([6]; Table 3A): 13.30 μg/cm^2
24h % mortality ([6]; Table 3A): 100%

O=C(NC(=O)c1cc(Cl)nc(Cl)c1)c1cc(Cl)nc(Cl)c1 [GMR117]
1 h % Repellency, 100 μg/cm^2 [4]: 62%
vapor repellency / mortality, statement in words (Example 8) ([4]; structure-activity analysis of Table 2): some repellency and mortality
Ae. aegypti OR LD50 [1]: >1500 ng/mg
topical toxicity, statement in words (Example 10) [3]: reduced activity
mortality at 100 µg/cm2 [7]: 100%

CC(=O)Nc1ccccc1C(F)(F)F [MTFI-1-4A]
1 h Repellency EC50, μg/cm^2 [4]: 26 μg/cm^2
1 h % Repellency, 100 μg/cm^2 [4]: 78%
1 h Repellency EC50, μg/cm^2 (RR) [5]: 81 μg/cm^2

CC(C)(C)OC(=O)Nc1cc(Cl)nc(Cl)c1 [GMR033]
Ae. aegypti OR LD50 [1]: 1199 ng/mg
An. gambiae G3 LD50 [9]: 21.4 ng/mg
An. gambiae RR (resistance ratio) [2]: 2.2
An. gambiae AKDR LD50 [2]: 46.7 ng/mg
topical toxicity, statement in words (Example 10) [3]: promising activity

O=C(Nc1c(Cl)cc(C(F)(F)F)cc1Cl)C(F)(F)C(F)(F)F [compound 41]
1h EC50 (μg/cm^2) ([4]; Table 3A): 5.30 μg/cm^2
1h % repellency ([4]; Table 3A): 66%
LD50 at 24 h [12]: 200 mg/kg
24 h LC50, μg/cm^2 ([6]; Table 3A): 0.27 μg/cm^2
24h % mortality ([6]; Table 3A): 100%

C#C[C@@H]1[C@@H](C(=O)Nc2cc(Cl)nc(Cl)c2)C1(C)C [GMR086]
Ae. aegypti OR LD50 [1]: >6000 ng/mg
An. gambiae G3 LD50 [9]: >50 ng/mg
An. gambiae AKDR LD50 [2]: >50 ng/mg
topical toxicity, statement in words (Example 10) [3]: reduced toxicity

CCCCCC(=O)Nc1cc(Cl)nc(Cl)c1 [GMR054]
Ae. aegypti OR LD50 [1]: >3000 ng/mg
An. gambiae G3 LD50 [9]: >100 ng/mg
An. gambiae AKDR LD50 [2]: >100 ng/mg
topical toxicity, statement in words (Example 10) [3]: reduced activity

C/C=C/C1C(C(=O)OCc2c(F)c(F)c(COC)c(F)c2F)C1(C)C (centres unmarked) [Metofluthrin, metofluthrin, reference compound]
1 h Repellency EC50, μg/cm^2 [4]: 0.3 μg/cm^2
1 h Repellency EC50, μg/cm^2 (RR) [5]: 12 μg/cm^2
24 h LC50, μg/cm^2 ([6]; 24 h, LC50 (OR)): 0.84 μg/cm^2
24 h LC50, μg/cm^2 (RR) [8]: 43 μg/cm^2

CC1(C)[C@H](C=C(Cl)Cl)[C@H]1C(=O)OCc1c(F)c(F)cc(F)c1F [Transfluthrin, transfluthrin, reference compound]
1 h Repellency EC50, μg/cm^2 [4]: 0.5 μg/cm^2
1 h Repellency EC50, μg/cm^2 (RR) [5]: 2.3 μg/cm^2
24 h LC50, μg/cm^2 ([6]; 24 h, LC50 (OR)): 0.16 μg/cm^2
24 h LC50, μg/cm^2 (RR) [8]: 7.6 μg/cm^2

CCOC(=O)Nc1cc(Cl)nc(Cl)c1 [GMR032]
Ae. aegypti OR LD50 [1]: 892 ng/mg
An. gambiae G3 LD50 [9]: 18.3 ng/mg
An. gambiae RR (resistance ratio) [2]: 3.6
An. gambiae AKDR LD50 [2]: 66.0 ng/mg
topical toxicity, statement in words (Example 10) [3]: promising activity

O=C(Nc1cc(Cl)nc(Cl)c1)C(F)(F)C(F)(F)C(F)(F)C(F)(F)C(=O)Nc1cc(Cl)nc(Cl)c1 [GMR077]
Ae. aegypti OR LD50 [1]: 5373 ng/mg
An. gambiae AKDR LD50 [2]: >100 ng/mg
topical toxicity, statement in words (Example 10) [3]: reduced activity
